Several values for one entry are separate records, joined by “and”; a condition that tells them apart may be missing. Identical values can stand only once.
Key:
[1] = tested on: human prostate cancer (PC-3); test: SRB cytotoxicity assay, PC-3; format: cell-based; conditions: PC-3 cells
Procedure: (§1) The SRB colorimetric assay was employed to assess the synthesized compounds’ cytotoxic effects on several cancer cell lines (Table 1)[11–14]. […] Furthermore, the effect of tested compounds was evaluated on the normal immortalized HPDE cell line.
(§2) Sulforhodamine B (SRB) assay was employed to assay in-vitro antitumor activities of all the synthesised compounds as describer previously. […] The cell lines were obtained from the American Type Culture Collection (Rockville, USA).

[2] = tested on: pancreatic human cancer cell lines (BxPC-3); test: SRB cytotoxicity assay, BxPC-3; format: cell-based; conditions: BxPC-3 cells
Procedure: as §1, §2

[3] = tested on: cervical carcinoma (HeLa); test: SRB cytotoxicity assay, HeLa; format: cell-based; conditions: Homo sapiens, HeLa cells
[4] = tested on: normal immortalised pancreatic cell line (HPDE); test: SRB cytotoxicity assay, normal HPDE cells; format: cell-based; conditions: normal immortalized HPDE cell line
Procedure: as §1, §2

[5] = tested on: human hepatocellular carcinoma (HepG-2); test: SRB cytotoxicity assay, HepG-2; format: cell-based; conditions: HepG2, HepG-2 cells
Procedure: as §1, §2

[6] = tested on: mammary gland breast cancer (MCF-7); test: SRB cytotoxicity assay, MCF-7; format: cell-based; conditions: Homo sapiens, MCF7, MCF-7 cells
Procedure: as §1, §2

human DHFR enzyme = biological target: T1, human DHFR enzyme (Homo sapiens, UniProt P00374); test: Elisa assay of human DHFR enzyme; format: biochemical; conditions: for IC50: DHFR ELISA kit, triplicate; for inhibition at 0.1 µM: conc 0.1 uM; for inhibition at 1 µM: conc 1 uM; for inhibition at 10 µM: conc 10 uM; for inhibition at 100 µM: conc 100 uM
T1 construct: purchased MyBioSource MBS9312476
T1 sequence (P00374 1-187): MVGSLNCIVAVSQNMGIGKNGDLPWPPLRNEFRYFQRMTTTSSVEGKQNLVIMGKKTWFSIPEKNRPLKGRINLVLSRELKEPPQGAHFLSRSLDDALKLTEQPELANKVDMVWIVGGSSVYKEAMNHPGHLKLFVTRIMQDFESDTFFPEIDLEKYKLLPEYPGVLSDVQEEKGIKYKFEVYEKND
Procedure: Enzyme-linked immunosorbent assay (ELISA) assay technique was used to evaluate the anti-DHFR effects of all the synthesised compounds on as described previously. The DHFR ELISA kit (MyBioSource, MBS9312476 San Diego, CA, USA) was used according to the manufacturer instructions. […] The test was repeated in triplicate, and the significance was assessed by one-way ANOVA test followed by Tukey’s posttest, where p < 0.05 was considered significance.

[7] = tested on: colorectal carcinoma (HCT-116); test: SRB cytotoxicity assay, HCT-116; format: cell-based; conditions: Homo sapiens, HCT-116 cells
Procedure: as §1, §2

Row | IC50 (human DHFR enzyme) | inhibition at 0.1 µM (human DHFR enzyme) | inhibition at 1 µM (human DHFR enzyme) | inhibition at 10 µM (human DHFR enzyme) | inhibition at 100 µM (human DHFR enzyme) | SMILES | IC50 [1] | IC50 [2] | IC50 [3] | IC50 [4] | IC50 [5] | IC50 [6] | IC50 [7]
1 | 1.28 ± 0.03 µM | 37% | 55% | 70% | 84% | O=C(NC(CS)C(=O)O)c1ccc(Nc2ncnc3c2cnn3-c2ccccc2)cc1 (stereo not drawn) [Compound 7g, 3-Mercapto-2-{4-[(1-phenyl-1H-pyrazolo[3,4-d]pyrimidin-4-yl)amino]benzamido}propanoic acid] | 13.2 ± 1.52 µM | 15.2 ± 0.22 µM | 12.3 ± 1.2 µM | > 50 µM | 10.2 ± 0.92 µM | 10.8 ± 1.1 µM | 12.2 ± 1.2 µM
2 | 8.47 ± 0.18 µM | 21% | 36% | 54% | 81% | CSCCC(NC(=O)c1ccc(Nc2ncnc3c2cnn3-c2ccccc2)cc1)C(=O)O (stereo not drawn) [Compound 7h, 4-(Methylthio)-2-{4-[(1-phenyl-1H-pyrazolo[3,4-d]pyrimidin-4-yl)amino]benzamido}butanoic acid] | 17 ± 2.02 µM | 17.9 ± 1.03 µM | 18 ± 1.2 µM | > 50 µM | 17 ± 0.92 µM | 20 ± 2.01 µM | 19.3 ± 0.85 µM
3 | < 1 µM and 0.82 µM | 35% | 63% | 80% | 94% | O=C(NC(Cc1c[nH]cn1)C(=O)O)c1ccc(Nc2ncnc3c2cnn3-c2ccccc2)cc1 (stereo not drawn) [Compound 7i, 3-(1h-Imidazol-4-yl)-2-{4-[(1-phenyl-1H-pyrazolo[3,4-d]pyrimidin-4-yl)amino]benzamido}-propanoic acid] | 12.8 ± 2.01 µM | 10.5 ± 3.01 µM | 10.9 ± 1.99 µM | > 50 µM | 9.26 ± 1.56 µM | 13.2 ± 1.21 µM | 13 ± 1.01 µM
4 | < 1 µM and 0.54 µM | 41% | 64% | 80% | 93% | O=C(O)C1CCCN1C(=O)c1ccc(Nc2ncnc3c2cnn3-c2ccccc2)cc1 (stereo not drawn) [Compound 7j, 1-{4-[(1-Phenyl-1H-pyrazolo[3,4-d]pyrimidin-4-yl)amino]benzoyl}pyrrolidine-2-carboxylic acid] | 11.2 ± 0.7 µM | 6.19 ± 0.43 µM | 9.29 ± 0.2 µM | > 50 µM | 10.3 ± 1.2 µM | 8.19 ± 1.2 µM | 8.1 ± 0.2 µM
5 | 7 ± 0.17 µM | 21% | 37% | 60% | 77% | O=C(NC(Cc1c[nH]c2ccccc12)C(=O)O)c1ccc(Nc2ncnc3c2cnn3-c2ccccc2)cc1 (stereo not drawn) [Compound 7k, 3-(1h-Indol-3-yl)-2-{4-[(1-phenyl-1H-pyrazolo[3,4-d]pyrimidin-4-yl)amino]benzamido}propanoic acid] | 19.9 ± 1.35 µM | 19.1 ± 1.23 µM | 19.5 ± 1.1 µM | > 50 µM | 25.54 ± 0.14 µM | 28.9 ± 1.91 µM | 18 ± 1.23 µM
6 | < 1 µM and ~0.66 µM and 0.66 µM | 34% | 68% | 81% | 92% | O=C(NC(Cc1ccccc1)C(=O)O)c1ccc(Nc2ncnc3c2cnn3-c2ccccc2)cc1 (stereo not drawn) [Compound 7l, 3-Phenyl-2-{4-[(1-phenyl-1H-pyrazolo[3,4-d]pyrimidin-4-yl)amino]benzamido}propanoic acid] | 10.1 ± 0.9 µM | 11.5 ± 0.76 µM | 9.05 ± 1.2 µM | > 50 µM | 13.2 ± 1.29 µM | 10.7 ± 1.09 µM | 13 ± 0.89 µM
7 | 1.34 ± 0.03 µM | 36% | 52% | 73% | 86% | O=C(NC(Cc1ccc(O)cc1)C(=O)O)c1ccc(Nc2ncnc3c2cnn3-c2ccccc2)cc1 (stereo not drawn) [Compound 7m, 3-(4-Hydroxyphenyl)-2-{4-[(1-phenyl-1H-pyrazolo[3,4-d]pyrimidin-4-yl)amino]benzamido}-propanoic acid] | 12.7 ± 1.87 µM | 12 ± 1.14 µM | 11.8 ± 1.13 µM | > 50 µM | 14.2 ± 0.98 µM | 11.3 ± 1.28 µM | 13.3 ± 2.21 µM

Further lines, the molecule ahead of its results:

Row | SMILES | IC50 (human DHFR enzyme) | inhibition at 0.1 µM (human DHFR enzyme) | inhibition at 1 µM (human DHFR enzyme) | inhibition at 10 µM (human DHFR enzyme) | inhibition at 100 µM (human DHFR enzyme) | IC50 [1] | IC50 [2] | IC50 [3] | IC50 [4] | IC50 [5] | IC50 [6] | IC50 [7]
8 | O=C(c1ccc(Nc2ncnc3c2cnn3-c2ccccc2)cc1)n1nnc2ccccc21 [Compound 6, {1H-benzo[d][1,2,3]triazol-1-yl}{4-[(1-phenyl-1H-pyrazolo-[3,4-d]pyrimidin-4-yl)-amino]phenyl}-methanone] | 7.99 ± 0.16 µM | 17% | 29% | 61% | 89% | 14.9 ± 1.24 µM | 14.2 ± 1.36 µM | 15.1 ± 1.21 µM | > 50 µM | 13 ± 1.86 µM | 11.9 ± 1.1 µM | 17.3 ± 2.18 µM
9 | O=C(O)CNC(=O)c1ccc(Nc2ncnc3c2cnn3-c2ccccc2)cc1 [Compound 7a, 2-{4-[(1-Phenyl-1H-pyrazolo[3,4-d]pyrimidin-4-yl)amino]benzamido}acetic acid] | 13.3 ± 0.24 µM | 12% | 30% | 57% | 81% | 23 ± 1.03 µM | 19.4 ± 1.56 µM | 19.4 ± 1.21 µM | > 50 µM | 15.5 ± 0.96 µM | 15.3 ± 1.29 µM | 28.2 ± 1.93 µM
10 | CC(NC(=O)c1ccc(Nc2ncnc3c2cnn3-c2ccccc2)cc1)C(=O)O (stereo not drawn) [Compound 7b, 2-{4-[(1-Phenyl-1H-pyrazolo[3,4-d]pyrimidin-4-yl)amino]benzamido}propanoic acid] | 42.5 ± 0.78 µM | 6.4% | 20% | 38% | 72% | 34.2 ± 2.61 µM | 31.2 ± 2.8 µM | 29.2 ± 1.9 µM | > 50 µM | 19.2 ± 1.87 µM | 35.7 ± 2.09 µM | 29.6 ± 1.91 µM
11 | CC(C)C(NC(=O)c1ccc(Nc2ncnc3c2cnn3-c2ccccc2)cc1)C(=O)O (stereo not drawn) [Compound 7c, 3-Methyl-2-{4-[(1-phenyl-1H-pyrazolo[3,4-d]pyrimidin-4-yl)amino]benzamido}butanoic acid] | < 1 µM and ~0.61 µM and 0.61 µM | 39% | 65% | 80% | 94% | 11.2 ± 0.34 µM | 10.2 ± 1.01 µM | 9.39 ± 0.25 µM | > 50 µM | 12.2 ± 1.14 µM | 6.56 ± 0.18 µM | 10.6 ± 1.1 µM
12 | CCC(C)C(NC(=O)c1ccc(Nc2ncnc3c2cnn3-c2ccccc2)cc1)C(=O)O (stereo not drawn) [Compound 7d, 3-Methyl-2-{4-[(1-phenyl-1H-pyrazolo[3,4-d]pyrimidin-4-yl)amino]benzamido}pentanoic acid] | < 1 µM and 0.43 µM | 42% | 66% | 85% | 95% | 9.99 ± 0.81 µM | 11.2 ± 0.41 µM | 8.09 ± 0.51 µM | > 50 µM | 9.09 ± 0.71 µM | 5.51 ± 0.28 µM | 10.1 ± 1.01 µM
13 | O=C(O)CCC(NC(=O)c1ccc(Nc2ncnc3c2cnn3-c2ccccc2)cc1)C(=O)O (stereo not drawn) [Compound 7e, 2-{4-[(1-Phenyl-1H-pyrazolo[3,4-d]pyrimidin-4-yl)amino]benzamido}pentanedioic acid] | 1.83 ± 0.04 µM | 28% | 57% | 72% | 89% | 13.8 ± 1.14 µM | 15.2 ± 1.15 µM | 13.1 ± 1.01 µM | > 50 µM | 16 ± 0.8 µM | 11.9 ± 1.1 µM | 15.3 ± 1.18 µM
14 | COc1cccc2c1C(=O)c1c(O)c3c(c(O)c1C2=O)C[C@@](O)(C(=O)CO)C[C@@H]3O[C@H]1C[C@H](N)[C@H](O)[C@H](C)O1 [Doxorubicin, reference compound] |  |  |  |  |  | 9.01 ± 0.09 µM | 7.23 ± 0.1 µM |  | > 50 µM | 4.6 ± 0.44 µM | 4.25 ± 0.15 µM | 
15 | CN(Cc1cnc2nc(N)nc(N)c2n1)c1ccc(C(=O)N[C@@H](CCC(=O)O)C(=O)O)cc1 [Methotrexate, methotrexate, reference compound] |  |  |  |  |  | 42.3 ± 7.25 µM | 29.1 ± 0.31 µM | 294.8 ± 0.51 µM | > 50 µM | 800.24 ± 0.16 µM | 66.11 ± 0.15 µM | 99.98 ± 0.22 µM
